In PubChem BioAssay AID2060620 (Molecular Pharmacology Branch, DTP, NCI, 2025):

Test system: 328373-195-R-J1-PDC complex spheroids, viability % test/control
Experiment: Anticancer human tumor 328373-195-R-J1-PDC patient-derived head and neck squamous carcinoma cell line growth inhibition [CLK]
Settings: for IC50: curve of first compound; for viability, T/C: stronger effect = lower value
Procedure, shortened: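 Multi-cell-type spheroids combined patient-derived tumor cells with HUVEC endothelial cells and human mesenchymal stem cells. Paired agents were dosed in half-log steps down from about clinical Cmax, or from 10 microM where Cmax was unknown.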

[1] = second compound 0.0316 µM, first compound 0.0316 µM
[2] = second compound 0.0316 µM, first compound 0.1 µM
[3] = second compound 0.0316 µM, first compound 0.316 µM
[4] = second compound 0.0316 µM, first compound 1 µM
[5] = second compound 0.0316 µM, first compound 3.16 µM
[6] = second compound 0.0316 µM, first compound 10 µM
[7] = second compound 0.1 µM, first compound 0.0316 µM
[8] = second compound 0.1 µM, first compound 0.1 µM
[9] = second compound 0.1 µM, first compound 0.316 µM
[10] = second compound 0.1 µM, first compound 1 µM
[11] = second compound 0.1 µM, first compound 3.16 µM
[12] = second compound 0.1 µM, first compound 10 µM
[13] = second compound 0.316 µM, first compound 0.0316 µM
[14] = second compound 0.316 µM, first compound 0.1 µM
[15] = second compound 0.316 µM, first compound 0.316 µM
[16] = second compound 0.316 µM, first compound 1 µM
[17] = second compound 0.316 µM, first compound 3.16 µM
[18] = second compound 0.316 µM, first compound 10 µM
[19] = second compound 1 µM, first compound 0.0316 µM
[20] = second compound 1 µM, first compound 0.1 µM
[21] = second compound 1 µM, first compound 0.316 µM
[22] = second compound 1 µM, first compound 1 µM
[23] = second compound 1 µM, first compound 3.16 µM
[24] = second compound 1 µM, first compound 10 µM
[25] = second compound 3.16 µM, first compound 0.0316 µM
[26] = second compound 3.16 µM, first compound 0.1 µM
[27] = second compound 3.16 µM, first compound 0.316 µM
[28] = second compound 3.16 µM, first compound 1 µM
[29] = second compound 3.16 µM, first compound 3.16 µM
[30] = second compound 3.16 µM, first compound 10 µM
[31] = second compound 10 µM, first compound 0.0316 µM
[32] = second compound 10 µM, first compound 0.1 µM
[33] = second compound 10 µM, first compound 0.316 µM
[34] = second compound 10 µM, first compound 1 µM
[35] = second compound 10 µM, first compound 3.16 µM
[36] = second compound 10 µM, first compound 10 µM
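Further: spheroids exposed to the agents for 7 days.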

## CC(C)CC(NC(=O)C(Cc1ccccc1)NC(=O)c1cnccn1)B(O)O (stereo unspecified) + CN1CCN(c2cc(C(=O)Nc3cc4cc(-c5cnn(C)c5)ccc4cn3)ccn2)CC1
Second compound 0.0316 µM
  IC50: 1.76 nM
Second compound 0.1 µM
  IC50: 1.5 nM
Second compound 0.316 µM
  IC50: < 0.949 nM
Second compound 1 µM
  IC50: < 0.949 nM
Second compound 3.16 µM
  IC50: < 0.949 nM
Second compound 10 µM
  IC50: < 0.949 nM
Second compound 0.0316 µM, first compound 0.000949 µM
  viability, T/C: 98.5%
Second compound 0.0316 µM, first compound 0.003 µM
  viability, T/C: 8.37%
Second compound 0.0316 µM, first compound 0.00949 µM
  viability, T/C: 1.89%
Second compound 0.0316 µM, first compound 0.03 µM
  viability, T/C: 0.2%
Second compound 0.0316 µM, first compound 0.0949 µM
  viability, T/C: 0.17%
Second compound 0.0316 µM, first compound 0.3 µM
  viability, T/C: 2.7%
Second compound 0.1 µM, first compound 0.000949 µM
  viability, T/C: 78.4%
Second compound 0.1 µM, first compound 0.003 µM
  viability, T/C: 6.61%
Second compound 0.1 µM, first compound 0.00949 µM
  viability, T/C: 2.17%
Second compound 0.1 µM, first compound 0.03 µM
  viability, T/C: 0.2%
Second compound 0.1 µM, first compound 0.0949 µM
  viability, T/C: 1.87%
Second compound 0.1 µM, first compound 0.3 µM
  viability, T/C: 2.34%
Second compound 0.316 µM, first compound 0.000949 µM
  viability, T/C: 26.6%
Second compound 0.316 µM, first compound 0.003 µM
  viability, T/C: 1.25%
Second compound 0.316 µM, first compound 0.00949 µM
  viability, T/C: 0.78%
Second compound 0.316 µM, first compound 0.03 µM
  viability, T/C: 0.49%
Second compound 0.316 µM, first compound 0.0949 µM
  viability, T/C: 1.14%
Second compound 0.316 µM, first compound 0.3 µM
  viability, T/C: 4.1%
Second compound 1 µM, first compound 0.000949 µM
  viability, T/C: 0.13%
Second compound 1 µM, first compound 0.003 µM
  viability, T/C: 3.65%
Second compound 1 µM, first compound 0.00949 µM
  viability, T/C: 0.97%
Second compound 1 µM, first compound 0.03 µM
  viability, T/C: 0.1%
Second compound 1 µM, first compound 0.0949 µM
  viability, T/C: 0.09%
Second compound 1 µM, first compound 0.3 µM
  viability, T/C: 2.54%
Second compound 3.16 µM, first compound 0.000949 µM
  viability, T/C: 0.08%
Second compound 3.16 µM, first compound 0.003 µM
  viability, T/C: 4.42%
Second compound 3.16 µM, first compound 0.00949 µM
  viability, T/C: 1.48%
Second compound 3.16 µM, first compound 0.03 µM
  viability, T/C: 0.07%
Second compound 3.16 µM, first compound 0.0949 µM
  viability, T/C: 1.48%
Second compound 3.16 µM, first compound 0.3 µM
  viability, T/C: 1.92%
Second compound 10 µM, first compound 0.000949 µM
  viability, T/C: 2.18%
Second compound 10 µM, first compound 0.003 µM
  viability, T/C: 1.53%
Second compound 10 µM, first compound 0.00949 µM
  viability, T/C: 3.09%
Second compound 10 µM, first compound 0.03 µM
  viability, T/C: 0.11%
Second compound 10 µM, first compound 0.0949 µM
  viability, T/C: 1.22%
Second compound 10 µM, first compound 0.3 µM
  viability, T/C: 2.07%

## CC1COCCN1c1cc(C2(S(C)(=N)=O)CC2)nc(-c2ccnc3[nH]ccc23)n1 (stereo unspecified) + CN1CCN(c2cc(C(=O)Nc3cc4cc(-c5cnn(C)c5)ccc4cn3)ccn2)CC1
Second compound 0.0316 µM
  IC50: 1660 nM
Second compound 0.1 µM
  IC50: 1150 nM
Second compound 0.316 µM
  IC50: < 31.6 nM
Second compound 1 µM
  IC50: < 31.6 nM
Second compound 3.16 µM
  IC50: < 31.6 nM
Second compound 10 µM
  IC50: < 31.6 nM
[1]
  viability, T/C: 95.4%
[2]
  viability, T/C: 96.6%
[3]
  viability, T/C: 88.2%
[4]
  viability, T/C: 69.3%
[5]
  viability, T/C: 25.9%
[6]
  viability, T/C: 8.66%
[7]
  viability, T/C: 90.9%
[8]
  viability, T/C: 86.8%
[9]
  viability, T/C: 81.1%
[10]
  viability, T/C: 55.2%
[11]
  viability, T/C: 18%
[12]
  viability, T/C: 9.2%
[13]
  viability, T/C: 22.7%
[14]
  viability, T/C: 37.2%
[15]
  viability, T/C: 28.5%
[16]
  viability, T/C: 14.7%
[17]
  viability, T/C: 7.56%
[18]
  viability, T/C: 7.95%
[19]
  viability, T/C: 0.21%
[20]
  viability, T/C: 0.24%
[21]
  viability, T/C: 0.58%
[22]
  viability, T/C: 0.22%
[23]
  viability, T/C: 2.35%
[24]
  viability, T/C: 2.29%
[25]
  viability, T/C: 2.09%
[26]
  viability, T/C: 0.12%
[27]
  viability, T/C: 0.16%
[28]
  viability, T/C: 0.14%
[29]
  viability, T/C: 1.51%
[30]
  viability, T/C: 3.51%
[31]
  viability, T/C: 0.14%
[32]
  viability, T/C: 1.61%
[33]
  viability, T/C: 1.87%
[34]
  viability, T/C: 1.76%
[35]
  viability, T/C: 1.92%
[36]
  viability, T/C: 2.57%

## O=C(c1cc(Cc2n[nH]c(=O)c3ccccc23)ccc1F)N1CCN(C(=O)C2CC2)CC1 + CN1CCN(c2cc(C(=O)Nc3cc4cc(-c5cnn(C)c5)ccc4cn3)ccn2)CC1
Second compound 0.0316 µM
  IC50: > 10000 nM
Second compound 0.1 µM
  IC50: > 10000 nM
Second compound 0.316 µM
  IC50: < 31.6 nM
Second compound 1 µM
  IC50: < 31.6 nM
Second compound 3.16 µM
  IC50: < 31.6 nM
Second compound 10 µM
  IC50: < 31.6 nM
[1]
  viability, T/C: 92.9%
[2]
  viability, T/C: 91%
[3]
  viability, T/C: 98.9%
[4]
  viability, T/C: 92.7%
[5]
  viability, T/C: 90.4%
[6]
  viability, T/C: 78.5%
[7]
  viability, T/C: 76.8%
[8]
  viability, T/C: 81.4%
[9]
  viability, T/C: 86.4%
[10]
  viability, T/C: 83.9%
[11]
  viability, T/C: 79%
[12]
  viability, T/C: 57.1%
[13]
  viability, T/C: 23.5%
[14]
  viability, T/C: 29.2%
[15]
  viability, T/C: 23.1%
[16]
  viability, T/C: 27.4%
[17]
  viability, T/C: 24.4%
[18]
  viability, T/C: 17.1%
[19]
  viability, T/C: 0.23%
[20]
  viability, T/C: 0.16%
[21]
  viability, T/C: 1.14%
[22]
  viability, T/C: 0.33%
[23]
  viability, T/C: 2.95%
[24]
  viability, T/C: 2.82%
[25]
  viability, T/C: 2.14%
[26]
  viability, T/C: 2.06%
[27]
  viability, T/C: 2.2%
[28]
  viability, T/C: 1.77%
[29]
  viability, T/C: 3.1%
[30]
  viability, T/C: 1.47%
[31]
  viability, T/C: 0.09%
[32]
  viability, T/C: 3.55%
[33]
  viability, T/C: 1.83%
[34]
  viability, T/C: 0.13%
[35]
  viability, T/C: 3.63%
[36]
  viability, T/C: 0.27%
